According to paper PMC12091851, “Replacing a Cereblon Ligand by a DDB1 and CUL4 Associated Factor 11 (DCAF11) Recruiter Converts a Selective Histone Deacetylase 6 PROTAC into a Pan‐Degrader” (Chemmedchem, 2025):

Molecular target: T1, HDAC6 (Homo sapiens, UniProt Q9UBN7)
T1 sequence (Q9UBN7 1-1215): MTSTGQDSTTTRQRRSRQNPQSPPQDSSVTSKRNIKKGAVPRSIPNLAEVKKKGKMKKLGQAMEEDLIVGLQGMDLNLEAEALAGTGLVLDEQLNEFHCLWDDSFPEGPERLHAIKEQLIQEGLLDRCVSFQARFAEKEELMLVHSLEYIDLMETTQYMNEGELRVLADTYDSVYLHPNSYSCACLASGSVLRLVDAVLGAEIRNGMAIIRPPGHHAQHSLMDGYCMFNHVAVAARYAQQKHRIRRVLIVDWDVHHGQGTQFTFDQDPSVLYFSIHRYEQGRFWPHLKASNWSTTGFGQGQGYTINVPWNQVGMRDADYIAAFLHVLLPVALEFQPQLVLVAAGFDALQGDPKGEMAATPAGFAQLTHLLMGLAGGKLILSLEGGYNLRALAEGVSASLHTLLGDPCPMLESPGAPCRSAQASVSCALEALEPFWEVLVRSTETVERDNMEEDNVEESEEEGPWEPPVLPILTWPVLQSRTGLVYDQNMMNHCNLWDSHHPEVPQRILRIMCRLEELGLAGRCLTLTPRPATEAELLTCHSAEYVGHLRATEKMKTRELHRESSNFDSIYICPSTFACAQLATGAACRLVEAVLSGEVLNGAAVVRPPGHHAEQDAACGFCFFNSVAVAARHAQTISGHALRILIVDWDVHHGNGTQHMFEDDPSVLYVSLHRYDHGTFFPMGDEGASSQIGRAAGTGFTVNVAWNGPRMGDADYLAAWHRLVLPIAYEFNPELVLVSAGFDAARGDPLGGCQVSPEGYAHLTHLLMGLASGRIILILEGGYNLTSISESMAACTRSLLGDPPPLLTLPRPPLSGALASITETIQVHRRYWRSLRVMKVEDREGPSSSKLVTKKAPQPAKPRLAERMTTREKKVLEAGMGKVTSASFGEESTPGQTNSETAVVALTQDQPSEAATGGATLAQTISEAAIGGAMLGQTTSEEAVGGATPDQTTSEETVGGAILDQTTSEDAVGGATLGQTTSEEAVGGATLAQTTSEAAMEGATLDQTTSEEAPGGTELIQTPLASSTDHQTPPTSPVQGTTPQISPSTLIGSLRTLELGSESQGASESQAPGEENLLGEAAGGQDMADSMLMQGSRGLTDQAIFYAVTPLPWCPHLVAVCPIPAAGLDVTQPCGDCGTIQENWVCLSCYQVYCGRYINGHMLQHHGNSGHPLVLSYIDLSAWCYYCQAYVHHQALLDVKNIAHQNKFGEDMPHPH
Test: Simple Western immunoassay, HDAC6 levels in U-87MG cell lysates
Format: cell-based
Design: endogenous in cells; host or cells: MM.1S
Details: 10 μM, 24 h
Description: Figure S5. Analysis of HDAC1 and 6 degradation in U-87MG cells. Simple western immunoassay analysis of U-87MG cell lysates. The cells were treated with the indicated compound (10 µM) or vehicle (DMSO) for 24 h. Top: Quantification of HDAC levels, presented as mean ± standard deviation of n = 2 biological replicates; Significance compared to vehicle: ns = p≥0.05 and *** = p≤0.001. Bottom:
Representative images of n = 2 biological replicates.
(1 picture or pasted object on this page, not shown here)
2. Biological Experiments
No unexpected or unusually high safety hazards were encountered.
The human multiple myeloma cell line MM.1S (CRL-2974) was obtained from American Type Culture Collection (ATCC, Manassas, VA, USA). […]
Louis, MO, USA) according to manufacturer´s instructions. Protein content was determined by Pierce™ BCA Protein Assay Kit (Catalog# 23225, Thermo Fisher Scientific Inc.) according to manufacturer´s guidelines. […]
Fluorescence Separation 8x25 Capillary Cartridges (Catalog# SM-FL004-1, Protein Simple, Bio-Techne, Minneapolis, MN, USA) were used for separation and the Anti-Mouse Detection Module (Catalog# DM-002, Protein Simple) was used for detection with addition of 20x Anti-Rabbit HRP […]
Conjugate (Catalog# 043-426, Protein Simple) according to manufacturer´s instructions. […] Evaluation and quantification was performed with the compass software (6.2.0, Protein Simple). […]

## O=C(CCCCCCNC(=O)c1ccc(NC(=O)CCCCCCCCCCCN(C(=O)CCl)C(C(=O)NCc2ccccc2)c2ccc(Cl)c(Cl)c2)cc1)NO (stereo not shown) [Compound 1j]
  HDAC6 degradation in U-87MG cells: significant HDAC1 and 6 degradation
